Source: patent publication US10906873B2, “Substituted cyclic amides as herbicides” (FMC Corporation, priority 2015, dated 2021)

These compounds were tested on barnyardgrass (Echinochloa crus-galli) (assay: Test A preemergence, barnyardgrass). Conditions: 125 g ai/ha, 0 to 100 scale.
Format: in vivo
Excerpt: (§1) Seeds of plant species selected from barnyardgrass (Echinochloa crus-galli), crabgrass (large crabgrass, Digitaria sanguinalis), kochia (Kochia scoparia), ragweed (common ragweed, Ambrosia elatior), morningglory (Ipomoea spp.), velvetleaf (Abutilon theophrasti), ryegrass, It. (Italian ryegrass, Lolium multiflorum), foxtail, giant (giant foxtail, Setaria faberii), wheat (Triticum aestivum), corn (Zea mays), and pigweed (Amaranthus retroflexus), were planted into a blend of loam soil and sand and treated preemergence with a directed soil spray using test chemicals formulated in a non-phytotoxic solvent mixture which included a surfactant. At the same time, plants selected from these crop and weed species and also blackgrass (Alopecurus myosuroides), and galium (catchweed bedstraw, Galium aparine), were planted in pots containing the same blend of loam soil and sand and treated with postemergence applications of test chemicals formulated in the same manner. Plants ranged in height from 2 to 10 cm and were in the one- to two-leaf stage for the postemergence treatment. Treated plants and untreated controls were maintained in a greenhouse for approximately 10 d, after which time all treated plants were compared to untreated controls and visually evaluated for injury. Plant response ratings, summarized in Table A, are based on a 0 to 100 scale where 0 is no effect and 100 is complete control. A dash (-) response means no test result.
For `O=C1NCC(C#Cc2ccc(F)cc2)C1C(=O)Nc1ccc(F)c(F)c1F` (stereo not drawn) [Compound 17], the “Plant response rating, Barnyardgrass” value was 20.

Same assay, conditions: 500 g ai/ha, 0 to 100 scale
With `O=C1NCC(C#Cc2ccc(F)cc2)C1C(=O)Nc1ccc(F)c(F)c1F` (stereo not drawn) [Compound 17] the “Plant response rating, Barnyardgrass” value was 50.

Each compound was assayed on kochia (Kochia scoparia) (assay: Test A preemergence, kochia). Conditions: 125 g ai/ha, 0 to 100 scale.
Format: in vivo
Excerpt: as §1
For `O=C1NCC(C#Cc2ccc(F)cc2)C1C(=O)Nc1ccc(F)c(F)c1F` (stereo not drawn) [Compound 17], the “Plant response rating, Kochia” value was 0.

Same assay, conditions: 500 g ai/ha, 0 to 100 scale
With `O=C1NCC(C#Cc2ccc(F)cc2)C1C(=O)Nc1ccc(F)c(F)c1F` (stereo not drawn) [Compound 17] the “Plant response rating, Kochia” value was 0.

What follows are compounds tested on ragweed (common ragweed, Ambrosia elatior) (assay: Test A preemergence, ragweed). Conditions: 125 g ai/ha, 0 to 100 scale.
Format: in vivo
Excerpt: as §1
In the case of `O=C1NCC(C#Cc2ccc(F)cc2)C1C(=O)Nc1ccc(F)c(F)c1F` (stereo not drawn) [Compound 17], the “Plant response rating, Ragweed” value was 0.

Same assay, conditions: 500 g ai/ha, 0 to 100 scale
With `O=C1NCC(C#Cc2ccc(F)cc2)C1C(=O)Nc1ccc(F)c(F)c1F` (stereo not drawn) [Compound 17] the “Plant response rating, Ragweed” value was 0.

The compounds below were run on ryegrass, It. (Italian ryegrass, Lolium multiflorum) (assay: Test A preemergence, ryegrass, It.). Conditions: 125 g ai/ha, 0 to 100 scale.
Format: in vivo
Excerpt: as §1
`O=C1NCC(C#Cc2ccc(F)cc2)C1C(=O)Nc1ccc(F)c(F)c1F` (stereo not drawn) [Compound 17] was tested, and the “Plant response rating, Ryegrass, It.” value was 0.

Same assay, conditions: 500 g ai/ha, 0 to 100 scale
For `O=C1NCC(C#Cc2ccc(F)cc2)C1C(=O)Nc1ccc(F)c(F)c1F` (stereo not drawn) [Compound 17], the “Plant response rating, Ryegrass, It.” value was 0.

Each compound was assayed on foxtail, giant (giant foxtail, Setaria faberii) (assay: Test A preemergence, foxtail, giant). Conditions: 125 g ai/ha, 0 to 100 scale.
Format: in vivo
Excerpt: as §1
For `O=C1NCC(C#Cc2ccc(F)cc2)C1C(=O)Nc1ccc(F)c(F)c1F` (stereo not drawn) [Compound 17], the “Plant response rating, Foxtail, Giant” value was 30.

Same assay, conditions: 500 g ai/ha, 0 to 100 scale
In the case of `O=C1NCC(C#Cc2ccc(F)cc2)C1C(=O)Nc1ccc(F)c(F)c1F` (stereo not drawn) [Compound 17], the “Plant response rating, Foxtail, Giant” value was 90.

These compounds were tested on pigweed (Amaranthus retroflexus) (assay: Test A preemergence, pigweed). Conditions: 125 g ai/ha, 0 to 100 scale.
Format: in vivo
Excerpt: as §1
With `O=C1NCC(C#Cc2ccc(F)cc2)C1C(=O)Nc1ccc(F)c(F)c1F` (stereo not drawn) [Compound 17] the “Plant response rating, Pigweed” value was 0.

Same assay, conditions: 500 g ai/ha, 0 to 100 scale
For `O=C1NCC(C#Cc2ccc(F)cc2)C1C(=O)Nc1ccc(F)c(F)c1F` (stereo not drawn) [Compound 17], the “Plant response rating, Pigweed” value was 20.

These compounds were tested on barnyardgrass (Echinochloa crus-galli) (assay: Test A postemergence, barnyardgrass). Conditions: 125 g ai/ha, 0 to 100 scale.
Format: in vivo
Excerpt: as §1
In the case of `O=C1NCC(C#Cc2ccc(F)cc2)C1C(=O)Nc1ccc(F)c(F)c1F` (stereo not drawn) [Compound 17], the “Plant response rating, Barnyardgrass” value was 20.

Same assay, conditions: 500 g ai/ha, 0 to 100 scale
With `O=C1NCC(C#Cc2ccc(F)cc2)C1C(=O)Nc1ccc(F)c(F)c1F` (stereo not drawn) [Compound 17] the “Plant response rating, Barnyardgrass” value was 90.

The compounds below were run on kochia (Kochia scoparia) (assay: Test A postemergence, kochia). Conditions: 125 g ai/ha, 0 to 100 scale.
Format: in vivo
Excerpt: as §1
In the case of `O=C1NCC(C#Cc2ccc(F)cc2)C1C(=O)Nc1ccc(F)c(F)c1F` (stereo not drawn) [Compound 17], the “Plant response rating, Kochia” value was 0.

Same assay, conditions: 500 g ai/ha, 0 to 100 scale
With `O=C1NCC(C#Cc2ccc(F)cc2)C1C(=O)Nc1ccc(F)c(F)c1F` (stereo not drawn) [Compound 17] the “Plant response rating, Kochia” value was 0.

The compounds below were run on ragweed (common ragweed, Ambrosia elatior) (assay: Test A postemergence, ragweed). Conditions: 125 g ai/ha, 0 to 100 scale.
Format: in vivo
Excerpt: as §1
For `O=C1NCC(C#Cc2ccc(F)cc2)C1C(=O)Nc1ccc(F)c(F)c1F` (stereo not drawn) [Compound 17], the “Plant response rating, Ragweed” value was 0.

Same assay, conditions: 500 g ai/ha, 0 to 100 scale
`O=C1NCC(C#Cc2ccc(F)cc2)C1C(=O)Nc1ccc(F)c(F)c1F` (stereo not drawn) [Compound 17] was tested, and the “Plant response rating, Ragweed” value was 0.

The compounds below were run on ryegrass, It. (Italian ryegrass, Lolium multiflorum) (assay: Test A postemergence, ryegrass, It.). Conditions: 125 g ai/ha, 0 to 100 scale.
Format: in vivo
Excerpt: as §1
With `O=C1NCC(C#Cc2ccc(F)cc2)C1C(=O)Nc1ccc(F)c(F)c1F` (stereo not drawn) [Compound 17] the “Plant response rating, Ryegrass, It.” value was 0.

Same assay, conditions: 500 g ai/ha, 0 to 100 scale
In the case of `O=C1NCC(C#Cc2ccc(F)cc2)C1C(=O)Nc1ccc(F)c(F)c1F` (stereo not drawn) [Compound 17], the “Plant response rating, Ryegrass, It.” value was 0.

These compounds were tested on foxtail, giant (giant foxtail, Setaria faberii) (assay: Test A postemergence, foxtail, giant). Conditions: 125 g ai/ha, 0 to 100 scale.
Format: in vivo
Excerpt: as §1
With `O=C1NCC(C#Cc2ccc(F)cc2)C1C(=O)Nc1ccc(F)c(F)c1F` (stereo not drawn) [Compound 17] the “Plant response rating, Foxtail, Giant” value was 0.

Same assay, conditions: 500 g ai/ha, 0 to 100 scale
With `O=C1NCC(C#Cc2ccc(F)cc2)C1C(=O)Nc1ccc(F)c(F)c1F` (stereo not drawn) [Compound 17] the “Plant response rating, Foxtail, Giant” value was 50.

These compounds were tested on wheat (Triticum aestivum) (assay: Test A postemergence, wheat). Conditions: 125 g ai/ha, 0 to 100 scale.
Format: in vivo
Excerpt: as §1
In the case of `O=C1NCC(C#Cc2ccc(F)cc2)C1C(=O)Nc1ccc(F)c(F)c1F` (stereo not drawn) [Compound 17], the “Plant response rating, Wheat” value was 0.

Same assay, conditions: 500 g ai/ha, 0 to 100 scale
With `O=C1NCC(C#Cc2ccc(F)cc2)C1C(=O)Nc1ccc(F)c(F)c1F` (stereo not drawn) [Compound 17] the “Plant response rating, Wheat” value was 0.

These compounds were tested on corn (Zea mays) (assay: Test A postemergence, corn). Conditions: 125 g ai/ha, 0 to 100 scale.
Format: in vivo
Excerpt: as §1
For `O=C1NCC(C#Cc2ccc(F)cc2)C1C(=O)Nc1ccc(F)c(F)c1F` (stereo not drawn) [Compound 17], the “Plant response rating, Corn” value was 0.

Same assay, conditions: 500 g ai/ha, 0 to 100 scale
In the case of `O=C1NCC(C#Cc2ccc(F)cc2)C1C(=O)Nc1ccc(F)c(F)c1F` (stereo not drawn) [Compound 17], the “Plant response rating, Corn” value was 0.

What follows are compounds tested on pigweed (Amaranthus retroflexus) (assay: Test A postemergence, pigweed). Conditions: 125 g ai/ha, 0 to 100 scale.
Format: in vivo
Excerpt: as §1
With `O=C1NCC(C#Cc2ccc(F)cc2)C1C(=O)Nc1ccc(F)c(F)c1F` (stereo not drawn) [Compound 17] the “Plant response rating, Pigweed” value was 0.

Same assay, conditions: 500 g ai/ha, 0 to 100 scale
In the case of `O=C1NCC(C#Cc2ccc(F)cc2)C1C(=O)Nc1ccc(F)c(F)c1F` (stereo not drawn) [Compound 17], the “Plant response rating, Pigweed” value was 0.

These compounds were tested on blackgrass (Alopecurus myosuroides) (assay: Test A postemergence, blackgrass). Conditions: 125 g ai/ha, 0 to 100 scale.
Format: in vivo
Excerpt: as §1
`O=C1NCC(C#Cc2ccc(F)cc2)C1C(=O)Nc1ccc(F)c(F)c1F` (stereo not drawn) [Compound 17] was tested, and the “Plant response rating, Blackgrass” value was 0.

Same assay, conditions: 500 g ai/ha, 0 to 100 scale
With `O=C1NCC(C#Cc2ccc(F)cc2)C1C(=O)Nc1ccc(F)c(F)c1F` (stereo not drawn) [Compound 17] the “Plant response rating, Blackgrass” value was 0.

The compounds below were run on galium (catchweed bedstraw, Galium aparine) (assay: Test A postemergence, galium). Conditions: 125 g ai/ha, 0 to 100 scale.
Format: in vivo
Excerpt: as §1
For `O=C1NCC(C#Cc2ccc(F)cc2)C1C(=O)Nc1ccc(F)c(F)c1F` (stereo not drawn) [Compound 17], the “Plant response rating, Galium” value was 0.

Same assay, conditions: 500 g ai/ha, 0 to 100 scale
In the case of `O=C1NCC(C#Cc2ccc(F)cc2)C1C(=O)Nc1ccc(F)c(F)c1F` (stereo not drawn) [Compound 17], the “Plant response rating, Galium” value was 0.

These compounds were tested on barnyardgrass (Echinochloa crus-galli) (assay: Test B flooded paddy test, barnyardgrass). Conditions: Flood, 250 g ai/ha; scale of 0 to 100 where 0 is no effect and 100 is complete control; 13 to 15 d.
Format: in vivo
Method: (§2) Plant species in the flooded paddy test selected from rice (Oryza sativa), sedge, umbrella (small-flower umbrella sedge, Cyperus difformis), ducksalad (Heteranthera limosa), and barnyardgrass (Echinochloa crus-galli) were grown to the 2-leaf stage for testing. At time of treatment, test pots were flooded to 3 cm above the soil surface, treated by application of test compounds directly to the paddy water, and then maintained at that water depth for the duration of the test. Treated plants and controls were maintained in a greenhouse for 13 to 15 d, after which time all species were compared to controls and visually evaluated. Plant response ratings, summarized in Table B, are based on a scale of 0 to 100 where 0 is no effect and 100 is complete control. A dash (-) response means no test result.
`O=C1NCC(C#Cc2ccc(F)cc2)C1C(=O)Nc1ccc(F)c(F)c1F` (stereo not drawn) [Compound 17] was tested, and the “Plant response rating, Barnyardgrass” value was 0.

These compounds were tested on ducksalad (Heteranthera limosa) (assay: Test B flooded paddy test, ducksalad). Conditions: Flood, 250 g ai/ha; scale of 0 to 100 where 0 is no effect and 100 is complete control; 13 to 15 d.
Format: in vivo
Method: as §2
With `O=C1NCC(C#Cc2ccc(F)cc2)C1C(=O)Nc1ccc(F)c(F)c1F` (stereo not drawn) [Compound 17] the “Plant response rating, Ducksalad” value was 70.

These compounds were tested on rice (Oryza sativa) (assay: Test B flooded paddy test, rice). Conditions: Flood, 250 g ai/ha; scale of 0 to 100 where 0 is no effect and 100 is complete control; 13 to 15 d.
Format: in vivo
Method: as §2
`O=C1NCC(C#Cc2ccc(F)cc2)C1C(=O)Nc1ccc(F)c(F)c1F` (stereo not drawn) [Compound 17] was tested, and the “Plant response rating, Rice” value was 0.

The compounds below were run on sedge, umbrella (small-flower umbrella sedge, Cyperus difformis) (assay: Test B flooded paddy test, sedge, umbrella). Conditions: Flood, 250 g ai/ha; scale of 0 to 100 where 0 is no effect and 100 is complete control; 13 to 15 d.
Format: in vivo
Method: as §2
In the case of `O=C1NCC(C#Cc2ccc(F)cc2)C1C(=O)Nc1ccc(F)c(F)c1F` (stereo not drawn) [Compound 17], the “Plant response rating, Sedge, Umbrella” value was 0.
